Measured values taken from patent publication US12577234B2, “Antagonists of the muscarinic acetylcholine receptor M4” (Vanderbilt University, priority 2017, dated 2026).

Target: T1, human mAChR M4 (Homo sapiens, UniProt P08173)
T1 construct: expressed in transfected cells; host or cells: CHO-K1 (ATCC), stably co-expressing chimeric G protein Gqi5
T1 sequence (P08173 1-479): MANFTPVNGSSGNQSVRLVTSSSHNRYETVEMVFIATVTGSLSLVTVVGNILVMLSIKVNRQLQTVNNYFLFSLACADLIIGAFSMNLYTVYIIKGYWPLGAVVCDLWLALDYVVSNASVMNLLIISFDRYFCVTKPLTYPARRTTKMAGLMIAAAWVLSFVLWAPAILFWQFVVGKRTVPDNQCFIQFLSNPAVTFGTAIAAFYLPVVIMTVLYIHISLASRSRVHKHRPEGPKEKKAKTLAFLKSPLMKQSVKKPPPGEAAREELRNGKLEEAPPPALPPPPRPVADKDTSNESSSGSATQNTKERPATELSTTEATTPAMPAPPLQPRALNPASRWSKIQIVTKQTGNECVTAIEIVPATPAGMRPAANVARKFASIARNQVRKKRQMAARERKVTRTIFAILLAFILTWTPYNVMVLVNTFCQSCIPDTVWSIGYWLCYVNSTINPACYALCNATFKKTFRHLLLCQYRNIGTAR
Test: mAChR M4 cell-based functional assay (calcium mobilization, EC80 acetylcholine), human M4
Settings: Table 9; for IC50: M4/Gqi5/CHO-K1 cells, decrease of EC80 acetylcholine response; for Emin: human M4, % ACh maximum at 30 μM
Description: Human or rat M4 cDNA, along with the chimeric G protein Gqi5, were transfected into Chinese hamster ovary (CHO-K1) cells purchased from the American Type Culture Collection using Lipofectamine2000. M4/Gqi5/CHO cells were grown in Ham's F-12 medium containing 10% heat-inactivated fetal bovine serum (FBS), 20 mM HEPES, 500 μg/mL G418 sulfate, and 200 μg/mL Hygromycin B.
For high throughput measurement of agonist-evoked increases in intracellular calcium, CHO-K1 cells stably expressing muscarinic receptors were plated in growth medium lacking G418 and hygromycin at 15,000 cells/20 μL/well in Greiner 384-well black-walled, tissue culture (TC)-treated, clear-bottom plates (VWR). Cells were incubated overnight at 37° C. and 5% CO2. […] Compound master plates were formatted in a 10 point concentration-response curve (CRC) format (1:3 dilutions) in 100% DMSO with a starting concentration of 10 or 1 mM using a BRAVO liquid handler (Agilent). Test compound CRCs were then transferred to daughter plates (240 nL) using the Echo acoustic plate reformatter (Labcyte, Sunnyvale, CA) and then diluted into assay buffer (40 μL) to a 2× stock using a Thermo Fisher Combi (Thermo Fisher Scientific, Waltham, MA).
Calcium flux was measured using the Functional Drug Screening System (FDSS) 6000 or 7000 (Hamamatsu Corporation, Tokyo, Japan) as an increase in the fluorescent static ratio. Compounds were applied to cells (20 μL, 2×) using the automated system of the FDSS at 2 seconds into the protocol and the data were collected at 1 Hz. […] Agonist activity was analyzed as a concentration-dependent increase in calcium mobilization upon compound addition. Positive allosteric modulator activity was analyzed as a concentration-dependent increase in the EC20 acetylcholine response. Antagonist activity was analyzed as a concentration-dependent decrease in the EC80 acetylcholine response; for the purposes of the tables herein, an IC50 (inhibitory concentration 50) was calculated as a concentration-dependent decrease of the response elicited by an EC80 concentration of acetylcholine. Concentration-response curves were generated using a four-parameter logistical equation in XLFit curve fitting software (IDBS, Bridgewater, NJ) for Excel (Microsoft, Redmond, WA) or Prism (GraphPad Software, Inc., San Diego, CA) or the Dotmatics software platform (Dotmatics, Bishop's Stortford, UK).

Row | SMILES | IC50 [µM] | Emin [%]
1 | Cc1cnn(C)c1-c1ccc(N[C@H]2C[C@@H]3CN(CCC(C)(C)C)C[C@@H]3C2)nn1 [Compound 1, (3aR,5s,6aS)-2-(3,3-Dimethylbutyl)-N-[6-(2,4-dimethylpyrazol-3-yl)pyridazin-3-yl]-3,3a,4,5,6,6a-hexahydro-1H-cyclopenta[c]pyrrol-5-amine] | 0.008 | 13.1
2 | Cc1nn(C)cc1-c1ccc(N[C@H]2C[C@@H]3CN(CC4CC5C=CC4C5)C[C@@H]3C2)nn1 (stereo partly drawn) [Compound 2, (3aR,5s,6aS)-2-(5-bicyclo[2.2.1]hept-2-enylmethyl)-N-[6-(1,3-dimethylpyrazol-4-yl)pyridazin-3-yl]-3,3a,4,5,6,6a-hexahydro-1H-cyclopenta[c]pyrrol-5-amine] | 0.0003 | 3.87
3 | Cc1nn(C)cc1-c1ccc(N[C@H]2C[C@@H]3CN(CCC(C)(C)C)C[C@@H]3C2)nn1 [Compound 3, (3aR,5s,6aS)-2-(3,3-dimethylbutyl)-N-[6-(1,3-dimethylpyrazol-4-yl)pyridazin-3-yl]-3,3a,4,5,6,6a-hexahydro-1H-cyclopenta[c]pyrrol-5-amine] | 0.0006 | 4.99
4 | Cc1nn(C)cc1-c1ccc(N[C@H]2C[C@@H]3CN(CC(C)C(C)(C)C)C[C@@H]3C2)nn1 (stereo partly drawn) [Compound 4, (3aR,5s,6aS)-N-[6-(1,3-dimethylpyrazol-4-yl)pyridazin-3-yl]-2-(2,3,3-trimethylbutyl)-3,3a,4,5,6,6a-hexahydro-1H-cyclopenta[c]pyrrol-5-amine] | 0.002 | 2.81
5 | Cc1nn(C)cc1-c1ccc(N[C@H]2C[C@@H]3CN(CC4CCOCC4)C[C@@H]3C2)nn1 [Compound 5, (3aR,5s,6aS)-N-[6-(1,3-dimethylpyrazol-4-yl)pyridazin-3-yl]-2-(tetrahydropyran-4-ylmethyl)-3,3a,4,5,6,6a-hexahydro-1H-cyclopenta[c]pyrrol-5-amine] | 0.01 | 2.98
6 | Cc1nn(C)cc1-c1ccc(N[C@H]2C[C@@H]3CN(CC4CCCOC4)C[C@@H]3C2)nn1 (stereo partly drawn) [Compound 6, (3aR,5s,6aS)-N-[6-(1,3-dimethylpyrazol-4-yl)pyridazin-3-yl]-2-(tetrahydropyran-3-ylmethyl)-3,3a,4,5,6,6a-hexahydro-1H-cyclopenta[c]pyrrol-5-amine] | 0.0114 | 3.33
7 | Cc1nn(C)cc1-c1ccc(N[C@H]2C[C@@H]3CN(CC4CCCCC4)C[C@@H]3C2)nn1 [Compound 7, (3aR,5s,6aS)-2-(cyclohexylmethyl)-N-[6-(1,3-dimethylpyrazol-4-yl)pyridazin-3-yl]-3,3a,4,5,6,6a-hexahydro-1H-cyclopenta[c]pyrrol-5-amine] | 0.01 | 2.72
8 | Cc1nn(C)cc1-c1ccc(N[C@H]2C[C@@H]3CN(Cc4ccccc4)C[C@@H]3C2)nn1 [Compound 8, (3aR,5s,6aS)-2-benzyl-N-[6-(1,3-dimethylpyrazol-4-yl)pyridazin-3-yl]-3,3a,4,5,6,6a-hexahydro-1H-cyclopenta[c]pyrrol-5-amine] | 0.01 | 3.22
9 | Cc1nn(C)cc1-c1ccc(N[C@H]2C[C@@H]3CN(Cc4ccccn4)C[C@@H]3C2)nn1 [Compound 9, (3aR,5s,6aS)-N-[6-(1,3-dimethylpyrazol-4-yl)pyridazin-3-yl]-2-(2-pyridylmethyl)-3,3a,4,5,6,6a-hexahydro-1H-cyclopenta[c]pyrrol-5-amine] | 0.0458 | 3.96

Further lines, results first:

Row | IC50 [µM] | Emin [%] | SMILES
10 | 0.0008 | 6.3 | Cc1cnn(C)c1-c1ccc(N[C@H]2C[C@@H]3CN(CC4CC5C=CC4C5)C[C@@H]3C2)nn1 (stereo partly drawn) [Compound 17, (3aR,5s,6aS)-2-(5-bicyclo[2.2.1]hept-2-enylmethyl)-N-[6-(2,4-dimethylpyrazol-3-yl)pyridazin-3-yl]-3,3a,4,5,6,6a-hexahydro-1H-cyclopenta[c]pyrrol-5-amine]
11 | 0.0902 | 2.90 | CCC(C)CN1C[C@H]2C[C@H](Nc3ccc(-c4c(C)cnn4C)nn3)C[C@H]2C1 (stereo partly drawn) [Compound 18, (3aR,5s,6aS)-N-[6-(2,4-dimethylpyrazol-3-yl)pyridazin-3-yl]-2-(2-methylbutyl)-3,3a,4,5,6,6a-hexahydro-1H-cyclopenta[c]pyrrol-5-amine]
12 | 0.01 | 3.11 | CCCC(C)CN1C[C@H]2C[C@H](Nc3ccc(-c4c(C)cnn4C)nn3)C[C@H]2C1 (stereo partly drawn) [Compound 19, (3aR,5s,6aS)-N-[6-(2,4-dimethylpyrazol-3-yl)pyridazin-3-yl]-2-(2-methylpentyl)-3,3a,4,5,6,6a-hexahydro-1H-cyclopenta[c]pyrrol-5-amine]
13 | 0.001 | 7.16 | Cc1cnn(C)c1-c1ccc(N[C@H]2C[C@@H]3CN(CC4CCCCC4)C[C@@H]3C2)nn1 [Compound 20, (3aR,5s,6aS)-2-(cyclohexylmethyl)-N-[6-(2,4-dimethylpyrazol-3-yl)pyridazin-3-yl]-3,3a,4,5,6,6a-hexahydro-1H-cyclopenta[c]pyrrol-5-amine]
14 | 0.01 | 4.32 | Cc1cnn(C)c1-c1ccc(N[C@H]2C[C@@H]3CN(CC4CCOCC4)C[C@@H]3C2)nn1 [Compound 21, (3aR,5s,6aS)-N-[6-(2,4-dimethylpyrazol-3-yl)pyridazin-3-yl]-2-(tetrahydropyran-4-ylmethyl)-3,3a,4,5,6,6a-hexahydro-1H-cyclopenta[c]pyrrol-5-amine]
15 | 0.0815 | 4.08 | Cc1cnn(C)c1-c1ccc(N[C@H]2C[C@@H]3CN(CC4CCCOC4)C[C@@H]3C2)nn1 (stereo partly drawn) [Compound 22, (3aR,5s,6aS)-N-[6-(2,4-dimethylpyrazol-3-yl)pyridazin-3-yl]-2-(tetrahydropyran-3-ylmethyl)-3,3a,4,5,6,6a-hexahydro-1H-cyclopenta[c]pyrrol-5-amine]
16 | 0.118 | 3.85 | Cc1cnn(C)c1-c1ccc(N[C@H]2C[C@@H]3CN(Cc4ccccc4)C[C@@H]3C2)nn1 [Compound 23, (3aR,5s,6aS)-2-benzyl-N-[6-(2,4-dimethylpyrazol-3-yl)pyridazin-3-yl]-3,3a,4,5,6,6a-hexahydro-1H-cyclopenta[c]pyrrol-5-amine]
17 | 0.0378 | 5.36 | Cc1cccnc1CN1C[C@H]2C[C@H](Nc3ccc(-c4c(C)cnn4C)nn3)C[C@H]2C1 [Compound 24, (3aR,5s,6aS)-N-[6-(2,4-dimethylpyrazol-3-yl)pyridazin-3-yl]-2-[(3-methyl-2-pyridyl)methyl]-3,3a,4,5,6,6a-hexahydro-1H-cyclopenta[c]pyrrol-5-amine]
18 | 0.193 | 4.92 | Cc1cnn(C)c1-c1ccc(N[C@H]2C[C@@H]3CN(Cc4ccccc4F)C[C@@H]3C2)nn1 [Compound 25, (3aR,5s,6aS)-N-[6-(2,4-dimethylpyrazol-3-yl)pyridazin-3-yl]-2-[(2-fluorophenyl)methyl]-3,3a,4,5,6,6a-hexahydro-1H-cyclopenta[c]pyrrol-5-amine]
19 | 0.128 | 3.20 | Fc1ccc(Cl)c(-c2ccc(N[C@H]3C[C@@H]4CN(CC56CC7CC(CC(C7)C5)C6)C[C@@H]4C3)nn2)c1 [Compound 26, (3aR,5s,6aS)-2-(1-adamantylmethyl)-N-[6-(2-chloro-5-fluoro-phenyl)pyridazin-3-yl]-3,3a,4,5,6,6a-hexahydro-1H-cyclopenta[c]pyrrol-5-amine]
20 | 0.0093 | 5.94 | Fc1ccc(Cl)c(-c2ccc(N[C@H]3C[C@@H]4CN(CC5CC6C=CC5C6)C[C@@H]4C3)nn2)c1 (stereo partly drawn) [Compound 27, (3aR,5s,6aS)-2-(5-bicyclo[2.2.1]hept-2-enylmethyl)-N-[6-(2-chloro-5-fluoro-phenyl)pyridazin-3-yl]-3,3a,4,5,6,6a-hexahydro-1H-cyclopenta[c]pyrrol-5-amine]
